Data as given in patent US11180783B2, “Method for producing chiral amines” (VITO NV, priority 2017, dated 2021).

What was measured:
[1] = system: TA_v2; format: biochemical
Experimental: Reaction was performed in 600 mL volume containing 2 mg/mL of TA_v2 powder, 250 mM AD 6, 10 mM BA substrate (dissolved in DMSO) and 0.1 mM PLP in 100 mM CHES buffer, pH 9.5. The final DSMO concentration was 5% (v/v). After 16 h of reaction, 550 mL of reaction mixture was transferred into the membrane unit and 2 intermittent nanofiltration tests were performed. The remaining 50 mL of reaction mixture was used as control without filtration. After the first nanofiltration (6 h duration, DESAL® DK, 20 bar), the collected permeate and the retentate were mixed, and 5 mM of additional BA substrate were added. Additional substrate was added also to the control condition. After 16 h of reaction, the second nanofiltration was performed (5 h duration, DuraMem® 200, 20 bar). Reaction permeate and retentate samples were taken after distinct time periods and prepared for quantitative analysis.
Addition of BA (5 mM) was made to the enzymatic tank E-1 after 24 h reaction. The second nanofiltration was run after 39 h reaction (DuraMem® 200 membrane, 20 bar).

[2] = system: TA_3HMU; experiment: asymmetric amine synthesis (transamination) with TA_3HMU; format: biochemical, Ruegeria pomeroyi; settings: for product formation from ketosubstrate with HMW amino donors: TA_3HMU, TLC or chiral GC analysis, no equilibrium shifting strategy; for BA conversion: crude extract lyophilized TA_3HMU (3 mg/mL), 25 times excess amine donor (250 mM)
Experimental: Asymmetric synthesis of chiral amines were performed using HMW amino donors and substrates 1a, 1b and 1c in the presence of TA_3HMU enzyme. […] However, performing the transamination reaction using substrates 1a or 1b, followed by a separation of the formed amine product using a membrane unit (8), according to advantageous aspects of the disclosure, will further shift the thermodynamic equilibrium to the product side of the reaction, thereby improving the product purity of the produced amine product.
Asymmetric amine synthesis experiments were performed using freeze-dried crude extract of TA_3HMU, provided by the company Enzymicals (Germany) and using PEG-A and PEG-C as amino donors (the activity of the enzyme being 970 mU/mg, photometric assay based on acetophenone detection). For a first test, a quite high amount of enzyme (12.5 mg/mL freeze dried powder, corresponding to about 6 mg/mL of total protein content) was used. In addition to poly ethylene glycol molecules (PEGs), the common and cheap LMW amino donor IPA was also investigated. Unlike PEGs, which can be retained by a porous (nanofiltration) membrane (3) with appropriate MWCO and/or pore size, the LMW amino donor IPA will also permeate forming the second solution (2).
Asymmetric amine synthesis experiments were also performed using amine transaminases TA_v2, purchased from c-LEcta GmbH, Leipzig, Germany. The purified enzyme was supplied as freeze-dried powder, the activity of TA_v2 being 1.73 U/mg. All reactions were performed in 1 mL volume containing 12.5-0.78 mg/mL of either TA_3HMU or TA_v2 powder, 10-500 mM amine donor (IPA, PEG-A and PEG-C, 10 mM BA model substrate (dissolved in DMSO) and 0.1 mM PLP in 100 mM CHES buffer, pH 9.5. The final DSMO concentration was 5% (v/v). […]
Substrate (BA) and product (MPPA) concentrations were determined by UHPLC (Thermo Scientific™) with UV detection at 194/210 nm. The chromatographic separation was achieved using 1 μL injection onto a C18 reversed-phase column (Waters Acquity UPLC® BEH C18 1.7 μm 2.1×50 mm). The column temperature was kept at 40° C. The gradient elution program is using mobile phase A 0.1% Formic Acid (FA) in Water (dH2O) and mobile phase B 0.1% FA in acetonitrile (ACN). The elution program was as follows: 0-4 min 99-30% A; 4-5 min 30-1% A; 5-5.1 min 1-99% A; 5.1-7.5 min 99% A; all at a flowrate of 400 μL/min. Amine donors AD 3 and AD 6 were analysed by HPLC with ELSD detector on Alltima HP C18 HL 5 μ, 4.6×250 mm. The eluents for PEGs analysis were: A) dH2O, 0.1% FA; B) ACN, 0.1% FA.
Furthermore, tests were conducted using different loadings of freeze-dried crude extract of TA_3HMU. Since the biotransformation could not be observed photometrically, continuous time-dependent following of the enzyme reaction was not possible. Therefore, laborious stopped enzyme assay providing only few measure points had to be employed. As expected, the initial reaction rate decreased when the enzyme loading was reduced. In presence of IPA donor amine, higher conversions were achieved. However, the reaction end-point decreased, reducing the enzyme amount (cf. FIG. 5.2c). […] Experimental conditions in FIG. 5.2: 10 mM BA; 250 mM AD; 0.1 mM PLP; 5% DMSO; 100 mM CHES buffer, pH 9.5, 30° C., 1000 rpm.
As already discussed hereinabove, using IPA as amine donor in transaminase reactions, a very high amount (e.g. 50-100 fold) amine donor excess is required, complicating downstream processing and possibly hampering the stability and activity of TAs (cf. e.g. Slabu, I. et al. in Catal. Today 306, 96-101 (2018); Savile, C. K. et al. in Science 329, 305-9 (2010); Dawood, A. W. H. et al. in ChemCatChem 10, 951-955 (2018)). TA_3HMU stability towards IPA and HMW ADs 3 and 6 was therefore explored. […] In contrast to IPA, in presence of bulky donor amines (cf. FIG. 5.3a and FIG. 5.3b). Experimental conditions in FIG. 5.3: 10 mM BA; 250 mM amine donor (AD 3, AD 6 or IPA); 0.1 mM PLP; 5% DMSO; 100 mM CHES buffer, pH 9.5, 30° C., 1000 rpm. […]

[3] = system: AspFum; experiment: glycine oxidase assay, TA screening towards HMW amino donors; format: biochemical, Aspergillus fumigatus; parameters: key: 0: no activity detected; settings: wildtype (R)- TA; 20 mM amino donor (2.5 mM α-MBA), 2.5 mM glyoxylate, CHES pH 9.5, 37° C., absorbance 498 nm
Experimental: (§1) The HMW amino donors listed in Table 1 were tested in a feasibility study for reaction with TA enzymes (the HMW amino donors being commercially available and relatively cheap). More particularly, in this study the acceptance of HMW amino donors by TA enzymes was investigated running a glycine oxidase assay (as described by WeiB et al. in Anal. Chem. 2014, 86, 11847-11853). Thereto, 25 wild type transaminases were selected from a library of enzymes. Transaminase selection was made on the basis of TAs availability, broad substrate and amino donor scope, and stability.
(§2) Final substrate concentration amounted to 2.5 mM glyoxylate, 20 mM large amino donor, 7.28 U/mL horseradish peroxidase, 0.12 mg/mL purified glycine oxidase, 3 mM 4-amino antipyrine, and 4.7 mM vanillic acid in CHES buffer (100 mM) with pH 9.5, in total reaction volumes of 150 μL. Cells with empty pET28a(+) vector were applied as negative control. A reaction using 2.5 mM α-MBA was applied as positive control.
(§3) The above (photometric) assay is semiquantitative: the increasing absorbance (slope in FIG. 4.1) correlates with enzyme activity. An accurate quantification, however, was difficult to be performed as the assay is a multi-enzyme reaction.
(§4) TA_3HMU was then further tested with three commercially available HMW Jeffamines® (AD 3, 4 and 6).

[4] = system: AspOry; experiment: as above; format: biochemical, Aspergillus oryzae; parameters: key: 0: no activity detected; settings: wildtype TA; 20 mM amino donor (2.5 mM α-MBA), 2.5 mM glyoxylate, CHES pH 9.5, 37° C., absorbance 498 nm
Experimental: as §1, §2, §3, §4

[5] = system: Vfl; experiment: as above; format: biochemical, Vibrio fluvialis JS17; parameters: key: 0: no activity detected; settings: wildtype TA; 20 mM amino donor (2.5 mM α-MBA), 2.5 mM glyoxylate, CHES pH 9.5, 37° C., absorbance 498 nm
Experimental: as §1, §2, §3, §4

[6] = system: ATA 117; experiment: as above; format: biochemical, Arthrobacter sp.; parameters: key: 0: no activity detected; settings: wildtype TA; 20 mM amino donor (2.5 mM α-MBA), 2.5 mM glyoxylate, CHES pH 9.5, 37° C., absorbance 498 nm
Experimental: as §1, §2, §3, §4

[7] = system: 3HMU; experiment: as above; format: biochemical, Ruegeria pomeroyi; parameters: key to TA activity towards amino donor (3HMU): 0: no activity detected; settings: for TA activity towards amino donor (3HMU): wildtype (S)-selective TA, 20 mM amino donor (2.5 mM α-MBA), 2.5 mM glyoxylate, CHES pH 9.5, 37° C., absorbance 498 nm; for TA_3HMU activity / acceptance of amino donor, in words: glycine oxidase assay, semiquantitative
Experimental: as §1, §2, §3, §4

[8] = system: 3FCR; experiment: as above; format: biochemical, Ruegeria sp. TM1040; parameters: key: 0: no activity detected; settings: wildtype TA; 20 mM amino donor (2.5 mM α-MBA), 2.5 mM glyoxylate, CHES pH 9.5, 37° C., absorbance 498 nm
Experimental: as §1, §2, §3, §4

[9] = system: MycVan; experiment: as above; format: biochemical, Mycobacterium vanbaalenii; parameters: key: 0: no activity detected; settings: wildtype TA; 20 mM amino donor (2.5 mM α-MBA), 2.5 mM glyoxylate, CHES pH 9.5, 37° C., absorbance 498 nm
Experimental: as §1, §2, §3, §4

[10] = on line nanofiltration (Desal-DK membrane) coupled with enzymatic reaction; format: biochemical; settings: after 1.5 h, BA manually diafiltrated (40 mM)
Experimental: Diafiltration depends on the permeate flow rate since it occurs at the same rate of permeation. Therefore, reaction and permeation rates are to be matched. When solution of high concentrated substrate (BA 200 mM in DMSO) was subjected to diafiltration, BA was accumulating in the enzymatic tank 6 (FIG. 20).
Permeate flux was very low, therefore BA was manually diafiltrated (40 mM). After 1.5 h, 18% BA was converted.

CC(N)CCc1ccccc1 (centres unmarked) [1M3P, 1-methyl-3-phenylpropylamine]
additional product formation ([1]; NF-2, DuraMem® 200, 20 bar): 15%

CC(=O)c1ccccc1 [1a, acetophenone]
product formation from ketosubstrate with HMW amino donors [2]: very low product formation

CC(=O)c1ccccc1Br [1b, ortho-bromoacetophenone]
product formation from ketosubstrate with HMW amino donors [2]: very low product formation

NCCCNCCNCCCN [AD 1, 1,2-bis(3-aminopropylamino)ethane]
TA activity towards amino donor (AspFum) [3]: 0
TA activity towards amino donor (AspOry) [4]: 0
TA activity towards amino donor (Vfl) [5]: 0
TA activity towards amino donor (ATA 117) [6]: 0
TA activity towards amino donor (3HMU) [7]: 0
TA activity towards amino donor (3FCR) [8]: 0
TA activity towards amino donor (MycVan) [9]: 0

NCCCN1CCN(CCCN)CC1 [AD 2, 1,4-Bis(3-aminopropyl)piperazine]
TA activity towards amino donor (AspFum) [3]: 0
TA_3HMU activity / acceptance of amino donor, in words [7]: high activity
TA activity towards amino donor (MycVan) [9]: 0

NCCNC(=O)CCN(CCC(=O)NCCN)CCN(CCC(=O)NCCN)CCC(=O)NCCN [AD 5]
TA activity towards amino donor (AspFum) [3]: 0
TA activity towards amino donor (AspOry) [4]: 0
TA activity towards amino donor (Vfl) [5]: 0
TA activity towards amino donor (ATA 117) [6]: 0
TA activity towards amino donor (3HMU) [7]: 0
TA activity towards amino donor (3FCR) [8]: 0
TA activity towards amino donor (MycVan) [9]: 0

CC(=O)CCc1ccccc1 [BA, benzylacetone]
product formation from ketosubstrate with HMW amino donors [2]: qualitatively detected
additional BA converted ([1]; 16 h after 5 mM substrate addition, NF reaction mixture and control (Reaction_2, Control-Reaction_2)): ~17%
BA further converted ([1]; Control-reaction_1, following 6 h, without filtration): 2%
unreacted substrate lost in the permeate stream ([1]; Desal-DK): ~58%
additional substrate conversion ([1]; NF-1, 6 h nanofiltration, Desal DK, 20 bar): 10%
BA converted ([1]; Reaction_1, 16 h, 10 mM BA, 250 mM AD 6, 2 mg/mL TA_v2): ~55%
BA converted [10]: 18%

CC(C)N [IPA, isopropyl amine, reference compound]
TA_3HMU stability in presence of amine donor ([2]; 250 mM amine donor (25-fold excess), 10 mM BA, 3.125 mg/mL enzyme, pH 9.5, 30° C.): fast inactivated

CC(N)c1ccccc1 (stereo not drawn) [α-MBA, 1-phenylethylamine, reference compound]
TA activity towards amino donor (AspOry) [4]: 0
TA activity towards amino donor (MycVan) [9]: 0

(highly flexible) poly(ethylene glycol) bis (3-aminopropyl) [AD 7]
TA activity towards amino donor (AspFum) [3]: 0
TA activity towards amino donor (AspOry) [4]: 0
TA activity towards amino donor (Vfl) [5]: 0
TA_3HMU activity / acceptance of amino donor, in words [7]: high activity
TA activity towards amino donor (MycVan) [9]: 0

O,O′-bis(2-aminopropyl) polypropylene glycol-block-polyethylene glycol-block-polypropylene glycol [AD 6]
BA conversion ([2]; 10 mM BA): 51%
TA_3HMU activity / acceptance of amino donor, in words [7]: broadly comparable to those achieved with the positive control
TA_3HMU activity / acceptance of amino donor, in words ([7]; listed as PEG-C): best acceptance

Poly(propylene glycol) bis(2-aminopropyl ether) [AD 3]
BA conversion ([2]; 10 mM BA): 45%
TA_3HMU activity / acceptance of amino donor, in words [7]: broadly comparable to those achieved with the positive control
TA_3HMU activity / acceptance of amino donor, in words ([7]; listed as PEG-A): best acceptance
